Values joined by “and” are separate entries in the source; they are usually repeats but may differ in a detail not shown here. Equal values may be shown once. Where a name gives a salt, the structure may show the parent alone. Read-outs that look alike come from different tables or passages of the source.
Experiments:
Herpes simplex virus = assay: In vitro plaque inhibition of Herpes simplex virus in BSC-1 or Hela cells (Table 3); format: cell-based; conditions: for inhibition at 6 µg/mL: read-out: PERCENT INHIBITION OF PLAQUES AT 6 mcg/ml; for inhibition at 12 µg/mL: read-out: PERCENT INHIBITION OF PLAQUES AT 12 mcg/ml; for inhibition at 25 µg/mL: read-out: PERCENT INHIBITION OF PLAQUES AT 25 mcg/ml; for inhibition at 50 µg/mL / PERCENT INHIBITION OF PLAQUES AT 50 mcg/ml: 50 mcg/ml; for inhibition at 50 µg/mL: read-out: PERCENT INHIBITION OF PLAQUES AT 50 mcg/ml; for inhibition at 100 µg/mL: 100 mcg/ml, read-out: PERCENT INHIBITION OF PLAQUES AT 100 mcg/ml; for inhibition at 3 µg/mL: read-out: PERCENT INHIBITION OF PLAQUES AT 3 mcg/ml
Experimental: The compounds of this invention also have anti-viral activity in vitro against Herpes simplex virus.
African green monkey kidney cells (BSC-1) or Hela cells (5-3) were grown in 25 cc. Falcon flasks at 37° C. in medium 199 with 5 percent inactivated fetal bovine serum (FBS), penicillin (150 units 1 ml.) and streptomycin (150 mcg./ml.). When confluent monolayers were formed, the supernatant growth medium was removed and 0.3 ml. of an appropriate dilution of Herpes simplex virus was added to each flask. After adsorption for one hour at room temperature, the virus infected cell sheet was overlaid with a medium comprising one part of 1 percent Ionagar No. 2 and one part double strength medium 199 with FCS, (fetal calf serum) penicillin, and streptomycin and also containing drug at concentrations of 100, 50, 25, 12, 6 and 3 micrograms per milliliter (mcg./ml.). The flask containing no drug served as a control. The stock solutions of 2,3-dihydroimidazo[1,2-c]pyrimidine compounds were made up in dimethylsulfoxide dilution at a concentration of 10^4 mcg./ml. The flasks were incubated for 72 hours at 37° C. […] A solution of 10 percent formalin and 2 percent sodium acetate was added to each flask to inactivate the virus and fix the cell sheet to the surface of the flask. The virus plaques, irrespective of size, were counted after staining the surrounding cell areas with crystal violet. The plaque count was compared to the control count at each drug concentration. The activity of the test compound was expressed as percentage plaque inhibition. Table 3, which follows, embodies the results of these determinations. In the table, column 1 gives the name of the compound, columns 2 through 6, the percent inhibition of herpes simplex plaques at various mcg./ml. levels of drug.

[1] = test system: cutaneous Herpes simplex virus type 1; assay: Topical treatment of cutaneous Herpes simplex virus type 1 lesions on guinea pig back, final score (Table 1); format: in vivo, guinea pigs; conditions: lesions scored 0 to 4+
Experimental: Three epilated areas on each guinea pig back were inoculated with approximately 1×10^5 plaque forming units of virus using a Sterneedle triggered 10 times for each area. Untreated guinea pigs so inoculated developed consistent rosette lesions in about 96 hours. All three areas on the back of each guinea pig were drug-treated and these compared with separate control animals which were treated with the particular vehicle employed for administering the drug. The positive control animals were treated with 0.5-1.0 percent phosphonoacetic acid (PAA) suspended in the same vehicle as the drug. Animals were inoculated on the morning of day 1 and treated on the afternoon of day 1. Two treatments per day were administered through day 5 for a total of 10 treatments. Hair was again epilated on day 5 and readings were begun then and taken daily through day 10. Lesions for each area were scored from 0 to 4+, which was a fully developed herpatic lesion with inflammation vesicles and pustules. An average score was then calculated for each drug for each day for the number of treated areas and control areas. Usually 3-6 guinea pigs were used per drug. After scoring, a final score or mean of means was calculated for drug-treated and for control areas. Table I which follows gives the results of determinations carried out as outlined above on compounds coming within the scope of this invention. In the table, column 1 gives the name of the drugs, column 2, the vehicle, column 3, the concentration; column 4, the number of animals used; and columns 5, the final score.

[2] = test system: Herpes simplex virus type I and Herpes simplex virus type II; assay: Intravaginal treatment of Herpes simplex virus type I and type II infection in guinea pigs, final score (Table 2); format: in vivo
Experimental: A second in-vivo test against Herpes simplex virus type I and Herpes simplex virus type II was carried out as follows. Guinea pigs were inoculated intravaginally by swabing the vagina with an absorbent cotton swab containing 2×10^4 plaque forming units of the virus. Prior to the inoculation with the virus, the vagina was swabbed with physiological saline to remove potential virus inhibitors. Treatment was started four hours after inoculation and continued for four days. The drug in a suitable base was introduced into the vaginal area also with an absorbent cotton swab. Controls in which the vehicle only were swabbed were included. Beginning on day 5 after inoculation and continuing through day 10, each animal was examined and scored from 0 to 4+ for secretion, inflammation, vesiculation and necrosis, thus yielding a possible top score of +16 per guinea pig. In the table, column 1 gives the name of the compound; column 2, the vehicle; column 3, the concentration; column 4, the number of animals used; and columns 5, the final score.

[3] = 72 h, 6 mcg/ml, 72 hours at 37° C.
[4] = 72 h, 12 mcg/ml, 72 hours at 37° C.
[5] = 72 h, 25 mcg/ml, 72 hours at 37° C.
[6] = 72 h, 3 mcg/ml, 72 hours at 37° C.
[7] = vehicle R, 2.5 % conc., top score +16
[8] = 25 mcg/ml, 72 hours at 37° C., hydrochloride
[9] = 72 hours at 37° C., hydrochloride

| SMILES | inhibition at 6 µg/mL (Herpes simplex virus; [3]) [%] | inhibition at 12 µg/mL (Herpes simplex virus; [4]) [%] | inhibition at 25 µg/mL (Herpes simplex virus; [5]) [%] | inhibition at 50 µg/mL (Herpes simplex virus; 72 h, 72 hours at 37° C.) [%] | inhibition at 100 µg/mL (Herpes simplex virus; 72 h, 72 hours at 37° C.) [%] | inhibition at 3 µg/mL (Herpes simplex virus; [6]) [%] | further results |
| --- | --- | --- | --- | --- | --- | --- | --- |
| CNC1=CC2=NCCN2C(C)=N1 [5-methyl-7-methylamino-2,3-dihydroimidazo[1,2-c]pyrimidine dihydrochloride] | 0 | 0 | 27 | 18 | 30 |  |  |
| CC1=NC(N(C)Cc2ccccc2)=CC2=NCCN12 [N,5-dimethyl-7-benzylamino-2,3-dihydroimidazo[1,2-c]pyrimidine hydrochloride] | 0 | 0 | 0 | 0 | 9 |  |  |
| NC1=NC(Cl)=CC2=NCCN12 [5-Amino-7-chloro-2,3-dihydroimidazo[1,2-c]pyrimidine hydrochloride] | 0 | 0 | 0 | 0 | 11 | 0 |  |
| CSC1=NC(Cl)=C(c2ccccc2)C2=NCCN12.Cl [5-Methylthio-7-chloro-8-phenyl-2,3-dihydroimidazo[1,2-c]pyrimidine hydrochloride] |  |  |  |  |  |  | Final Score ([1]; vehicle D, 2.5 % conc.): 1.97; PERCENT INHIBITION OF PLAQUES AT 3 mcg/ml (Herpes simplex virus; 3 mcg/ml, 72 hours at 37° C., hydrochloride): 100% and 58% |
| Cl.O=[N+]([O-])C1=C(NCCCl)N=CN2CCN=C12 [7-(β-chloroethylamino)-8-nitro-2,3-dihydroimidazo[1,2-c]pyrimidine hydrochloride] |  |  |  |  |  |  | Final Score [2, 7]: 1.25; inhibition at 6 µg/mL (Herpes simplex virus; 72 h): 33%; inhibition at 12 µg/mL (Herpes simplex virus; 72 h): 41%; inhibition at 25 µg/mL (Herpes simplex virus; 72 h): 68% |
| CC1=NC(Cl)=CC2=NC(c3ccccc3)CN12.Cl (racemic) [2-phenyl-5-methyl-7-chloro-2,3-dihydroimidazo[1,2-c]pyrimidine hydrochloride] |  | 41 | 87 | 100 |  | 0 | PERCENT INHIBITION OF PLAQUES AT 12 mcg/ml (Herpes simplex virus; 12 mcg/ml, 72 hours at 37° C., hydrochloride): 50%; PERCENT INHIBITION OF PLAQUES AT 25 mcg/ml (Herpes simplex virus; [8]): 83%; PERCENT INHIBITION OF PLAQUES AT 50 mcg/ml (Herpes simplex virus; [9]): 89% |
| CCC1=NC(Cl)=CC2=NCCN21.Cl [5-Ethyl-7-chloro-2,3-dihydroimidazo[1,2-c]pyrimidine hydrochloride] |  |  | 50 |  | 100 | 0 | Final Score ([1]; vehicle D, 1.0 % conc.): 1.09; Final Score ([1]; vehicle D, 1.5 % conc.): 1.53; Final Score ([1]; vehicle D, 2.5 % conc.): 1.60; Final Score [2, 7]: 2.83; PERCENT INHIBITION OF PLAQUES AT 25 mcg/ml (Herpes simplex virus; [8]): 33%; PERCENT INHIBITION OF PLAQUES AT 50 mcg/ml (Herpes simplex virus; [9]): 76% |
| CC1=NC(Cl)=CC2=NCCN12.Cl [5-methyl-7-chloro-2,3-dihydroimidazo[1,2-c]pyrimidine hydrochloride] | 0 | 0 |  | 85 |  |  | Final Score ([1]; vehicle B, 1.0 % conc.): 2.06; Final Score ([1]; vehicle D, 1.0 % conc.): 1.56; Final Score ([1]; vehicle K, 1.0 % conc.): 1.95; Final Score ([1]; vehicle R, 1.0 % conc.): 1.81; Final Score ([2]; vehicle C, 2.5 % conc., top score +16): 7.9; Final Score ([2]; vehicle D, 2.0 % conc., top score +16): 6.13; Final Score ([2]; vehicle R, 2.0 % conc., top score +16, hydrochloride): 3.17 and 3.57; PERCENT INHIBITION OF PLAQUES AT 50 mcg/ml (Herpes simplex virus; [9]): 82% |
| CC1=NC(Cl)=CC2=NCC(c3ccccc3)N12 (racemic) [dl-3-phenyl-5-methyl-7-chloro-2,3-dihydroimidazo[1,2-c]pyrimidine hydrochloride] | 0 |  | 78 | 100 |  | 0 | Final Score ([1]; vehicle D, 2.5 % conc.): 1.72; PERCENT INHIBITION OF PLAQUES AT 25 mcg/ml (Herpes simplex virus; [8]): 68%; PERCENT INHIBITION OF PLAQUES AT 50 mcg/ml (Herpes simplex virus; [9]): 95% |
| CCCCCC1=NC(Cl)=CC2=NCCN21 [5-n-Amyl-7-chloro-2,3-dihydroimidazo[1,2-c]pyrimidine hydrochloride] | 0 |  |  | 100 |  | 0 |  |
| CC1=NC(N2CCCC2)=CC2=NCCN12 [5-methyl-7-pyrrolidino-2,3-dihydroimidazo[1,2-c]pyrimidine hydrochloride] | 0 | 0 | 0 | 0 | 7 | 0 |  |
| CC1=NC(Cl)=CC2=NCC(C)N12 (racemic) [dl-3,5-dimethyl-7-chloro-2,3-dihydroimidazo[1,2-c]pyrimidine hydrochloride] | 0 | 0 | 12 | 74 |  |  |  |
| CSC1=NC(Cl)=CC2=NCC(c3ccccc3)N21 (racemic) [dl-3-phenyl-5-methylthio-7-chloro-2,3-dihydroimidazo[1,2-c]pyrimidine hydrochloride] |  |  |  |  |  |  | inhibition at 3 µg/mL (Herpes simplex virus; 3 mcg/ml, high virus input (HV)): 23%; inhibition at 3 µg/mL (Herpes simplex virus; 3 mcg/ml, low virus input (LV)): 57%; inhibition at 6 µg/mL (Herpes simplex virus; 6 mcg/ml, high virus input (HV)): 84%; inhibition at 6 µg/mL (Herpes simplex virus; 6 mcg/ml, low virus input (LV)): 100% |
| CSC1=NC(Cl)=CC2=NCCN21.Cl [5-Methylthio-7-chloro-2,3-dihydroimidazo[1,2-c]pyrimidine hydrochloride] | 49 | 100 |  |  |  | 30 | Final Score ([1]; vehicle R, 2.5 % conc.): 2.00; Final Score ([2]; vehicle D, 2.5 % conc., top score +16): 3.81; Final Score [2, 7]: .92; PERCENT INHIBITION OF PLAQUES AT 6 mcg/ml (Herpes simplex virus; 6 mcg/ml, 72 hours at 37° C., hydrochloride): 48% |

Source: patent US4153695A, “Substituted 2,3-dihydro imidazo[1,2-c]pyrimidines” (priority 1978, dated 1979)
